The record followed here is patent publication US20150057357A1, “BIS (THIOHYDRAZIDE AMIDE) COMPOUNDS FOR TREATING CANCERS” (The Board of Trustees of The Leland Stanford Junior …, priority 2012, published 2015).

In assay [1] the test system is BRCA1-mutated breast cancer cells (HCC1937, SUM149PT, SUM1315MO2). The assay can be described thus: MTT drug sensitivity assay, BRCA1-mutated breast cancer cells. The assay is classed as cell-based, human. The text has this:
(§1) Human breast cell lines represented the normal breast (MCF12A), basal-like breast cancer (BT549, HCC1806, MDAMB468), BRCA1-mutated breast cancer (HCC1937, SUM149PT, SUM1315MO2), and luminal breast cancer (BT474, MDAMB361, and T47D). Stable cell lines expressing shRNA to hOGG1 (shOGG1) or a non-targeting control (shCTRL) and BRCA1^+/+ and BRCA1^−/− mouse mammary epithelial cells have been previously described (E. Alli, V. B. Sharma, P. Sunderesakumar, J. M. Ford, Defective repair of oxidative dna damage in triple-negative breast cancer confers sensitivity to inhibition of poly(ADP-ribose) polymerase, Cancer Res, 69, 2009, 3589-3596). All cell lines were maintained at 37° C. and 5% CO2.
(§2) Cells were exposed to increasing concentrations of elesclomol and incubated at 37° C. in the presence of 5% CO2 for 96 hours. Cellular sensitivity was then determined by MTT assay and expressed as a percentage of the vehicle control (DMSO). Each data point represents the average of quadruplicate determinations +/−S.D. Images were obtained under 10× objective and are representative.
(§3) Cell lines that represent the normal breast or BRCA1-mutated, basal-like or luminal breast cancers were examined for sensitivity to elesclomol. Shown in FIG. 1 are images of BRCA-1 mutated, basal-like or luminal breast cancer cell cultures after treatment with 0 μM, 0.2 μM or 1 μM elesclomol. […]

Assay [2] concerns cell lines deficient in the hOOG1 DNA glycosylase (shOGG1-A and sh-OGG1-B). The assay is described as follows: MTT drug sensitivity assay, base excision repair deficient cells. Type of assay: cell-based. To be noted: shOGG1-A and sh-OGG1-B versus isogenic controls shCTRL-A and shCTRL-B; FIG. 3.
Text: as §1, §2
Two different cell lines deficient in the hOOG1 DNA glycosylase that initiates base excision repair (shOGG1-A and sh-OGG1-B) and their isogenic control cells lines (shCTRL-A and shCTRL-B) were examined for sensitivity to elesclomol.

Assay [3] concerns basal-like breast cancer cells (BT549, HCC1806, MDAMB468). The assay is described as follows: MTT drug sensitivity assay, basal-like breast cancer cells. The assay is classed as cell-based, human.
Text: as §1, §2, §3

For assay [4], the system named is normal breast cells (MCF12A). The assay is described as follows: MTT drug sensitivity assay, normal breast cells. Conditions: concentrations of up to 1 μM, 96 hours, FIG. 2. Type of assay: cell-based, human.
Text: as §1, §2, §3

Assay [5] relates to luminal breast cancer cells (BT474, MDAMB361, T47D). The assay is described as follows: MTT drug sensitivity assay, luminal breast cancer cells. The assay is classed as cell-based, human. To be noted: concentrations of up to 1 μM, 96 hours, FIG. 2.
Text: as §1, §2, §3

Each structure is given as a SMILES string.

As to `CN(NC(=O)CC(=O)NN(C)C(=S)c1ccccc1)C(=S)c1ccccc1` [elesclomol], the “sensitivity to elesclomol (cellular viability dose-response)” value is recorded as “increased sensitivity” in assay [1] (BRCA1-mutated breast cancers compared to normal breast cells or luminal breast cancer cells, FIG. 1, FIG. 2) and “increased sensitivity” in assay [3] (basal-like breast cancers compared to normal breast cells or luminal breast cancer cells, FIG. 1, FIG. 2). The induced cell death result is reported as “up to 95%” in assay [1] (concentrations of up to 1 μM, 96 hours, BRCA1-mutated breast cancer cells, FIG. 2) and “up to 75%” in assay [3] (concentrations of up to 1 μM, 96 hours, basal-like breast cancer cells, FIG. 2). Also, the “sensitivity to elesclomol (cell viability, MTT)” value in assay [2] was “increased sensitivity”. Also, the “effect of treatment on cells (cell death)” value in assay [4] and in assay [5] was “remained unaffected” in each case.
